Patent US20200399262A1, “COMPOUNDS FOR INHIBITING PROTEIN DEGRADATION AND METHODS OF USE THEREOF IN THE TREATMENT OF CANCER” (PI Therapeutics Ltd, priority 2018, published 2020)
Values after ≈ are worked out from the molar mass of the structure shown.

system: poly-ubiquitinated proteins; assay: Western blot of poly-ubiquitinated proteins in MM1.S cells; assay type: cell-based; details: SDS-PAGE immunoblot
Procedure: MM1.S cells were treated with Compound B1 (FIG. 1A), Compound AA (FIG. 1B) and Compound E1 (FIG. 1C) for indicated periods of time. Following treatment, the cells were harvested, and the lysates resolved on SDS-PAGE. Transferred membranes were blotted with antibodies as indicated. Actin was used as loading control.
Protein analysis by Western blot. At the end of treatment period, the cells were lysed with M-PER mammalian protein extraction reagent (ThermoFisher Scientific) supplemented with protease inhibitors. Equal protein amounts were resolved on pre-cast SDS-PAGE (ThermoFisher Scientific) and transferred to a PVDF membrane. The membrane was immunoblotted with antibodies as indicated. The following antibodies were used: Ub MAb (SC-8017, Santa-Cruz), ATF4, ATF6, phospho JNK, JNK (Cell signaling); eIF2alpha, phospho eIF2alpha (Novus).

| SMILES | accumulation of poly-ubiquitinated proteins |
| --- | --- |
| Cc1noc(C)c1/C=C1\CN(S(=O)(=O)CCCN(C)C)C/C(=C\c2c(C)noc2C)C1=O [Compound E1] | observable accumulation of poly-ubiquitinated proteins |

system: not listed separately; assay: Kinetic solubility by differential UV absorbance; assay type: physicochemical; details: aqueous buffer, kinetic from dmso stock; DMSO stock diluted in PBS, OD before and after centrifugation
Procedure: FIG. 3A-3B depict the kinetic solubility of Compound B1 (FIG. 3A) and Compound E1 (FIG. 3B) as measured by differential UV absorbance of the compounds, as performed before and after centrifugation. Soluble concentrations were determined when OD was equivalent between centrifuged and non-centrifuged fractions. Compounds were dissolved from co-solvent stock, and further serially 2-fold diluted in PBS. OD was measured at the maximal absorbance for each compound before (BC) and after (AC) centrifugation, using Spark 20M, Tecan.
Kinetic solubility quantification. Compound B1/Compound E1 DMSO stock was diluted with PBS by serial 2-fold dilutions. Then, the samples were centrifuged for 5 minutes at 17,000 g to precipitate any insoluble compound. Each sample was tested at a single wave length (Compound B1 at […]; Compound E1 at […]) in duplicate before and after centrifugation to assess solubility of the compound. Soluble concentrations were determined when optical density (OD) was equivalent between centrifuged and non-centrifuged fractions.
Kinetic solubility of all Compounds was determined by differential UV absorbance before and after centrifugation. […] Solubility concentration was determined when OD was equivalent between centrifuged and non-centrifuged fractions (FIG. 3A-3B).

| SMILES | solubility kinetic |
| --- | --- |
| Cc1noc(C)c1/C=C1\CN(S(=O)(=O)CCCN(C)C)C/C(=C\c2c(C)noc2C)C1=O [Compound E1] | 2500 µM (≈ 1160 µg/mL) |

system: MM1.S; assay: Cell viability, ATPlite 1-step, MM cell lines; assay type: cell-based; details: Homo sapiens; MM1.S MM cell line; 48 hours; read-out: Compound EC50
Procedure: (§1) Cell Viability. The assay was performed only when cell viability was ≥90%. Cells were seeded in 96-well white clear bottom plates at concentration of 100,000 cells/mL and treated with serially diluted compounds or vehicle (DMSO) control in triplicates for 48 hours (h). Cell viability was determined using the ATPlite 1-step assay system (PerkinElmer). The method was based on the production of light caused by the reaction of ATP, which was a marker for cell viability. […] were added to the plates which were read in a plate reader for luminescence. The emitted light is proportional to the ATP concentration. Viability was calculated as the percent of viable cells from control vehicle-treated cells. EC50 was calculated using Prism software.
(§2) Potency of compounds were assessed by viability assay.

| SMILES | EC50 |
| --- | --- |
| CN(C)CCCS(=O)(=O)N1C/C(=C\c2ccc(C#N)cc2)C(=O)C(Cc2ccc(C#N)cc2)C1 (centres unmarked) [Compound F1] | < 300 nM |
| O=C1/C(=C/c2ccc(Cl)c(Cl)c2)CN(C(=O)C2(Nc3ccccc3)CC2)CC1Cc1ccc(Cl)c(Cl)c1 (centres unmarked) [Compound B26] | ≥ 1000 nM |
| CC(=O)NCCC(=O)N1C/C(=C\c2ccc(Cl)c(Cl)c2)C(=O)/C(=C/c2ccc(Cl)c(Cl)c2)C1 [Compound B13] | < 300 nM |
| CC(=O)NC1(C(=O)N2C/C(=C\c3ccc(Cl)c(Cl)c3)C(=O)/C(=C/c3ccc(Cl)c(Cl)c3)C2)CC1 [Compound B23] | < 300 nM |
| C#CCN(C)CC(=O)NCC(=O)N1C/C(=C\c2ccc(C#N)cc2)C(=O)/C(=C/c2ccc(C#N)cc2)C1 [Compound B3] | < 300 nM |
| CN(CCCN=[N+]=[N-])CC(=O)NCC(=O)N1C/C(=C\c2ccc(C#N)cc2)C(=O)/C(=C/c2ccc(C#N)cc2)C1 [Compound B2] | < 300 nM |
| Cc1noc(C)c1/C=C1\CN(S(=O)(=O)CCCN(C)C)C/C(=C\c2c(C)noc2C)C1=O [Compound E1] | < 300 nM |

Other lines, results leading:

| EC50 | SMILES |
| --- | --- |
| < 300 nM | CN(C)CCS(=O)(=O)N1C/C(=C\c2ccc(C#N)cc2)C(=O)/C(=C/c2ccc(C#N)cc2)C1 [Compound BA] |
| < 300 nM | N#Cc1ccc(/C=C2\CN(C(=O)CNC(=O)CO)C/C(=C\c3ccc(C#N)cc3)C2=O)cc1 [Compound B8] |
| < 300 nM | O=C1/C(=C/c2ccc(Cl)c(Cl)c2)CN(C(=O)C2(Nc3ccccc3)CC2)C/C1=C\c1ccc(Cl)c(Cl)c1 [Compound B16] |
| < 300 nM | CC(=O)NCC(=O)N1C/C(=C\c2ccc(C#N)cc2)C(=O)/C(=C/c2ccc(C#N)cc2)C1 [Compound B6, N-{2-[(3E,5E)-3,5-bis[(4-cyanophenyl)methylidene]-4-oxopiperidin-1-yl]-2-oxoethyl}acetamide] |
| < 300 nM | CN(C)CCCS(=O)(=O)N1C/C(=C\c2ccc(F)c(C(F)(F)F)c2)C(=O)/C(=C/c2ccc(F)c(C(F)(F)F)c2)C1 [Compound CA] |

system: U266; assay: Cell viability, ATPlite 1-step, MM cell lines; assay type: cell-based; details: Homo sapiens, U-266; U266 MM cell line; 48 hours; read-out: Compound EC50
Procedure: as §1, §2

| SMILES | EC50 |
| --- | --- |
| COCCNCC(=O)N1C/C(=C\c2ccc(Cl)c(Cl)c2)C(=O)/C(=C/c2ccc(Cl)c(Cl)c2)C1 [Compound B11] | ≥ 1000 nM |
| N[C@@H](Cc1ccccn1)C(=O)N1C/C(=C\c2ccc(Cl)c(Cl)c2)C(=O)/C(=C/c2ccc(Cl)c(Cl)c2)C1 [Compound B18] | < 300 nM |
| CC(=O)N[C@H](CO)C(=O)N1C/C(=C\c2ccc(C#N)cc2)C(=O)/C(=C/c2ccc(C#N)cc2)C1 [Compound B7, N-[(2R)-1-[(3E,5E)-3,5-bis[(4-cyanophenyl)methylidene]-4-oxopiperidin-1-yl]-3-hydroxy-1-oxopropan-2-yl]acetamide] | 300 to 1000 nM |
| CNCC(=O)N1C/C(=C\c2ccc(Cl)c(Cl)c2)C(=O)/C(=C/c2ccc(Cl)c(Cl)c2)C1 [Compound B10] | ≥ 1000 nM |
| N[C@@H](Cc1cccc(O)c1)C(=O)N1C/C(=C\c2ccc(Cl)c(Cl)c2)C(=O)/C(=C/c2ccc(Cl)c(Cl)c2)C1 [Compound B19] | < 300 nM |
| C#CCN(C)CC(=O)NCC(=O)N1C/C(=C\c2ccc(C#N)cc2)C(=O)/C(=C/c2ccc(C#N)cc2)C1 [Compound B3] | < 300 nM |
| COC(Cc1ccccc1)C(=O)N1C/C(=C\c2ccc(Cl)c(Cl)c2)C(=O)/C(=C/c2ccc(Cl)c(Cl)c2)C1 (centres unmarked) [Compound B17] | < 300 nM |
| CC(C)C(Nc1ccccc1)C(=O)N1C/C(=C\c2ccc(Cl)c(Cl)c2)C(=O)/C(=C/c2ccc(Cl)c(Cl)c2)C1 (centres unmarked) [Compound B28] | < 300 nM |
| O=C1/C(=C/c2ccc(Cl)c(Cl)c2)CN(C(=O)C(O)Cc2ccccc2)C/C1=C\c1ccc(Cl)c(Cl)c1 (centres unmarked) [Compound B14] | 300 to 1000 nM |

Continued, values first:

| EC50 | SMILES |
| --- | --- |
| 300 to 1000 nM | N[C@@H](Cc1ccccc1)C(=O)N1C/C(=C\c2ccccc2)C(=O)/C(=C/c2ccc(Cl)c(Cl)c2)C1 [Compound B21] |
| < 300 nM | COCCS(=O)(=O)N1C/C(=C\c2ccc(Cl)c(Cl)c2)C(=O)/C(=C/c2ccc(Cl)c(Cl)c2)C1 [Compound D1] |
| 300 to 1000 nM | CNC(=O)CCC(=O)N1C/C(=C\c2ccc(Cl)c(Cl)c2)C(=O)/C(=C/c2ccc(Cl)c(Cl)c2)C1 [Compound B24] |
| < 300 nM | N[C@@H](Cc1ccccc1)C(=O)N1C/C(=C\c2ccc(Cl)c(Cl)c2)C(=O)/C(=C/c2cc(Cl)ccc2Cl)C1 [Compound B22] |
| < 300 nM | O=C1/C(=C/c2ccc(Cl)c(Cl)c2)CN(C(=O)C2COCCN2)C/C1=C\c1ccc(Cl)c(Cl)c1 (centres unmarked) [Compound B20] |
| < 300 nM | CC(=O)NCC(=O)N1C/C(=C\c2ccc(Cl)c(Cl)c2)C(=O)/C(=C/c2ccc(Cl)c(Cl)c2)C1 [Compound B25] |
| < 300 nM | CN(C)C(Cc1ccccc1)C(=O)N1C/C(=C\c2ccc(Cl)c(Cl)c2)C(=O)/C(=C/c2ccc(Cl)c(Cl)c2)C1 (centres unmarked) [Compound B32] |
| 300 to 1000 nM | O=C1/C(=C/c2ccc(Cl)c(Cl)c2)CN(C(=O)CCc2ccccc2)C/C1=C\c1ccc(Cl)c(Cl)c1 [Compound B12] |
| ≥ 1000 nM | O=C1/C(=C/c2ccc(Cl)c(Cl)c2)CN(C(=O)C(Cc2ccccc2)C(=O)O)C/C1=C\c1ccc(Cl)c(Cl)c1 (centres unmarked) [Compound B15] |
| < 300 nM | CNC(=O)CC(=O)N1C/C(=C\c2ccc(Cl)c(Cl)c2)C(=O)/C(=C/c2ccc(Cl)c(Cl)c2)C1 [Compound B30] |
| ≥ 1000 nM | O=C1/C(=C/c2ccc(Cl)c(Cl)c2)CN(C(=O)CNc2ccccc2)C/C1=C\c1ccc(Cl)c(Cl)c1 [Compound B9] |
| < 300 nM | CC(=O)NCC(=O)N1C/C(=C\c2ccc(F)c(C#N)c2)C(=O)/C(=C/c2ccc(F)c(C#N)c2)C1 [Compound B5, N-{2-[(3E,5E)-3,5-bis[(3-cyano-4-fluorophenyl)methylidene]-4-oxopiperidin-1-yl]-2-oxoethyl}acetamide] |
| ≥ 1000 nM | CC(=O)NCCC(=O)N1C/C(=C\c2ccc(Cl)c(Cl)c2)C(=O)C(Cc2ccc(Cl)c(Cl)c2)C1 (centres unmarked) [Compound B27] |

system: MM cell lines; assay: Cell viability, ATPlite 1-step, MM cell lines; assay type: cell-based; details: cell line printed N/A; read-out: Compound EC50
Procedure: as §1, §2

| SMILES | EC50 |
| --- | --- |
| CC(=O)N(C)CCC(=O)N1C/C(=C\c2ccc(Cl)c(Cl)c2)C(=O)/C(=C/c2ccc(Cl)c(Cl)c2)C1 [Compound B29] | ≥ 1000 nM |

system: proteasome; assay: Proteasome activity (Proteasome-GLO) in intact MM1.S cells; assay type: cell-based; details: 3 hr at 37° C.
Procedure: Proteasome activity was measured in intact MM1.S cells as cleavage of peptide substrates, specific for Trypsin like (TL), Chemotrypsin like (CTL) and Caspase like (PL) activities of the proteasome following treatment with Compound B1, Compound AA or Bortezomib (BTZ) at ˜EC50 concentrations for 3 hr at 37° C. BTZ was used as positive control.
Proteasome activity. The assay was performed only when cell viability is ≥90%. Cells were seeded in 96-well white clear bottom plates and treated with diluted compounds or vehicle control in triplicates for 3 hours at various concentrations. Catalytic activity was measured using three luminogenic proteasome substrates: Suc-LLVY-aminoluciferin (Succinyl-leucine-leucine-valine-tyrosine-aminoluciferin), Z-LRR-aminoluciferin (Z-leucine-arginine-arginine-aminoluciferin) and Z-nLPnLD-aminoluciferin (Z-norleucine-proline-norleucine-aspartate-aminoluciferin) for the chymotrypsin-like, trypsin-like and caspase-like activities, respectively (Proteasome-GLO, Promega). The emitted light was proportional to the proteasomal activity. Catalytic activity was calculated as the percent activity from control vehicle-treated cells.
MM1.S cells, were treated with Compound B1, Compound AA or Bortezomib (BTZ) at various concentrations for 3 hr at 37° C. […] Proteasome activity was measured by cleavage of proteasome-specific peptide substrates for TL, CTL and PL activities.

| SMILES | inhibition of the enzymatic functions of the proteasome (TL, CTL and PL activities) |
| --- | --- |
| CC(C)C[C@H](NC(=O)[C@H](Cc1ccccc1)NC(=O)c1cnccn1)B(O)O [Bortezomib, reference compound] | specifically inhibits CTL activity |
